Laboratory results published in patent US20040024024A1, “Aromatic sulfone hydroxamates and their use as protease inhibitors” (priority 2001, published 2004).

Assays:
Human recombinant MMP-13 = molecular target: T1, Human recombinant MMP-13 (Homo sapiens, UniProt P45452); assay: In vitro MMP inhibition, IC50 determination (fluorogenic substrate I); type: biochemical
T1 construct: made in house; host or cells: baculovirus / insect cells
Method: (§1) Several hydroxamates and salts thereof were analyzed in in vitro assays to determine their ability to inhibit the MMP cleavage of peptide substrates. Inhibition (Ki) and IC50 constants were calculated from the assayed hydroxamate-MMP interactions.
(§2) Human recombinant MMP-1, MMP-2, MMP-9, MMP-13, and MMP-14 were used in this assay. All enzymes were prepared in Assignee's laboratories following usual laboratory procedures. Protocols for the preparation and use of these enzymes are available in the scientific literature. See, e.g., Enzyme Nomenclature (Academic Press, San Diego, Calif., 1992) (and the citations therein). See also, Frije et al., J. Biol. Chem., 26(24), 16766-73 (1994).
The expressed proenzyme was first purified over a heparin agarose column, and then over a chelating zinc chloride column. The proenzyme was then activated by APMA for use in the assay. Further details on baculovirus expression systems may be found in, for example, Luckow et al., J. Virol., 67, 4566-79 (1993). See also, O'Reilly et al, Baculovirus Expression Vectors: A Laboratory Manual (W. H. Freeman and Co., New York, N.Y., 1992). See also, King et al., The Baculovirus Expression System: A Laboratory Guide (Chapman & Hall, London, England, 1992).
(§3) All MMPs were activated using 4-aminophenylmercuric acetate (“APMA”, Sigma Chemical, St. Louis, Mo.) or trypsin. MMP-9 also was activated using human recombinant MMP-3 (purified in Assignee's laboratory following standard cloning and purification techniques).
(§4) Two fluorogenic, methoxycoumarin-containing polypeptide substrates were used in the MMP inhibition assays:
(§5) MCA-ProLeuGlyLeuDpaAlaArgNH2 (I)
(§6) Here, “Dpa” is 3-(2,4-dinitrophenyl)-L-2,3-diaminopropionyl group, and “MCA” is 7-methoxycoumarin-4-yl acetyl. Substrate (I) was purchased from Baychem (Redwood City, Calif.), and substrate II was prepared Assignee's laboratory. Substrate I was used in the IC50 determination assays, while substrate II was used in the Ki determination assays. In the absence of MMP inhibitory activity, either substrate is cleaved at the Gly-Leu peptide bond. This cleavage separates the highly fluorogenic peptide from the 2,4-dinitrophenyl quencher, thus resulting in increase of fluorescent intensity.
(§7) The stock solutions of the assayed hydroxamates (or salts thereof) were prepared in 1% dimethyl sulfoxide (DMSO). These stock solutions were diluted in Buffer A (100 mM Tris-HCl, 100 mM NaCl, 10 mM CaCl2, 0.05% polyoxyethylene 23 lauryl ether, pH 7.5) to obtain solutions with different hydroxamate concentrations, i.e., assay solutions with different concentrations of the assayed MMP inhibitory compound. The experiment controls contained the same amount of Buffer A/DMSO as the assayed sample, but contained no hydroxamate (or salt thereof).
(§8) The assays from which the IC50 determinations were made were performed as follows. The MMPs were activated with either trypsin or APMA (4-aminophenylmercuric acetate, Sigma Chemical, St. Louis, Mo.). The assayed hydroxamate samples were, incubated in Microfluorrm White Plates (Dynatech, Chantilly, VA) and analyzed on a Perkin Elmer L550 plate reader (Norwalk, Conn.). The excitation wavelength was 328 nm, and the emission wavelength—415 nm. All samples (assayed hydroxamates and controls) were incubated in separate plates at room temperature in the presence of 4 μM of MMP substrate (I). As stated in the previous paragraph, samples containing varying concentrations of the same assayed hydroxamate were prepared. Inhibition was measured as a reduction in fluorescent intensity as a function of MMP inhibitor concentration.

Human recombinant MMP-2 = molecular target: T2, Human recombinant MMP-2 (Homo sapiens, UniProt P08253); assay: as above; type: biochemical
T2 construct: made in house; host or cells: MMP-2-transfected p2AHT2 cells
T2 sequence (P08253 110-660): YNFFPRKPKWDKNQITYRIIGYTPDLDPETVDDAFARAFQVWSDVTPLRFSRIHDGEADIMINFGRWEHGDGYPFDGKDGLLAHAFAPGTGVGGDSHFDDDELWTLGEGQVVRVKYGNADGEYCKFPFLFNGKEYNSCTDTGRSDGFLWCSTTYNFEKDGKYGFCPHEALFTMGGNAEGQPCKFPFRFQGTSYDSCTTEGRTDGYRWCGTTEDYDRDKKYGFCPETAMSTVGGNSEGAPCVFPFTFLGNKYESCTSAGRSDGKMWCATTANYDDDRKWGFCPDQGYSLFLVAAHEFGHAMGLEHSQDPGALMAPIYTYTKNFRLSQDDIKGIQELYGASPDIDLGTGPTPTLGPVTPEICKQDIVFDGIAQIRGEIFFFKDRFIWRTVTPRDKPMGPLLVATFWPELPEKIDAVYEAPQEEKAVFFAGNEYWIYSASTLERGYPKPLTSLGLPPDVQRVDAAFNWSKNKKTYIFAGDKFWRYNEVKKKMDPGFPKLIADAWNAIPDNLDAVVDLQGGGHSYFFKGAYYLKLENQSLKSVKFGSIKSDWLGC
Method: as §1, §2
The MMP-2 proenzyme was purified by gelatin Sepharose chromatography from MMP-2-transfected p2AHT2 cells provided by Dr. Gregory Goldberg of Washington University (St. Louis, Mo.).
as §3, §4, §5, §6, §7, §8

[1] = value outside parentheses (Ki in parenthesis)
[2] = substrate (I) 4 μM, room temperature, values not in parenthesis

SMILES | IC50 (Human recombinant MMP-13; [1]) [µM] | IC50 (Human recombinant MMP-2; [1]) [µM] | also measured
COc1ccc(/C(C)=C/CCCOc2ccc(S(=O)(=O)C3(C(=O)NO)CCOCC3)cc2)c(OC)c1 [Example 345] | 0.0143 | 0.271 | –
O=C(NO)C1(S(=O)(=O)c2ccc(OCCCc3cccc(-c4ccccn4)c3)cc2)CCOCC1 [Example 153] | – | – | IC50 (Human recombinant MMP-13; value outside parenthesis): 0.0076 µM; IC50 (Human recombinant MMP-2; value outside parenthesis): 0.192 µM
COc1ccc2cc(O)c(C(=O)NCCCOc3ccc(S(=O)(=O)C4(C(=O)NO)CCOCC4)cc3)cc2c1 [Example 377] | 0.0059 | 1.27 | –
O=C(NO)C1(S(=O)(=O)c2ccc(OCCCCCO)cc2)CCOCC1 [Example 452] | 0.0148 | 0.0022 | –
C=CCCCOc1ccc(S(=O)(=O)C2(C(=O)NO)CCOCC2)cc1 [Example 481] | 0.002 | 0.0013 | –
O=C(NO)C1(S(=O)(=O)c2ccc(OCCCCN3CCCc4ccccc43)cc2)CCOCC1 [Example 413] | 0.008 | 0.061 | –
C[C@H](COc1ccc(S(=O)(=O)C2(C(=O)NO)CCOCC2)cc1)NC(=O)c1ccc(N(C)C)cc1 [Example 394] | 1.9 | 3.2 | –
COCCN1CCC(C(=O)NO)(S(=O)(=O)c2ccc(OCCCn3nnc(-c4ccc(S(C)(=O)=O)cc4)n3)cc2)CC1 [Example 104] | – | – | IC50 (Human recombinant MMP-13; value outside parenthesis): 0.0008 µM; IC50 (Human recombinant MMP-2; value outside parenthesis): 0.0442 µM
COCCN1CCC(C(=O)NO)(S(=O)(=O)c2ccc(OCCCc3nc(-c4ccc(CCC(C)C)cc4C)no3)cc2)CC1 [Example 100] | – | – | IC50 (Human recombinant MMP-13; value outside parenthesis): 0.153 µM; IC50 (Human recombinant MMP-2; value outside parenthesis): 1.69 µM
COCCN1CCC(C(=O)NO)(S(=O)(=O)c2ccc(OCCCn3ncc(-c4ccc(OC)cc4)c3C(F)(F)F)cc2)CC1 [Example 202] | – | – | IC50 (Human recombinant MMP-13; value outside parenthesis): 0.0419 µM; IC50 (Human recombinant MMP-2; value outside parenthesis): 1.6 µM
CC(=O)NC(C)(C)CCOc1ccc(S(=O)(=O)C2(C(=O)NO)CCOCC2)cc1 [Example 242] | – | – | IC50 (Human recombinant MMP-13; value outside parenthesis): 0.203 µM; IC50 (Human recombinant MMP-2; value outside parenthesis): 2.72 µM
COc1ccc(C(=O)N2CC[C@@H](Oc3ccc(S(=O)(=O)C4(C(=O)NO)CCOCC4)cc3)C2)cc1OC [Example 426] | 5.15 | > 10 | –
O=C(NCCCOc1ccc(S(=O)(=O)C2(C(=O)NO)CCOCC2)cc1)C1CCCC1 [Example 400] | 0.009 | 0.326 | –
COc1ccc(C(=O)NCCCOc2ccc(S(=O)(=O)C3(C(=O)NO)CCOCC3)cc2)cc1OC [Example 362] | 0.0037 | 0.347 | –
O=C(NCCCOc1ccc(S(=O)(=O)C2(C(=O)NO)CCOCC2)cc1)c1ccc(-c2ccccc2)cc1 [Example 365] | 0.0006 | 0.021 | –
COc1ccc(C(=O)N2CCCC(COc3ccc(S(=O)(=O)C4(C(=O)NO)CCOCC4)cc3)C2)cc1 (stereo not shown) [Example 421] | 0.256 | 0.649 | –
O=C(Cc1ccc(-c2ccc(Cl)cc2)s1)NCCOc1ccc(S(=O)(=O)C2(C(=O)NO)CCOCC2)cc1 [Example 618] | – | – | IC50 (Human recombinant MMP-13; value outside parentheses): 0.0275 µM; IC50 (Human recombinant MMP-2; value outside parentheses): 0.822 µM
COCCN1CCC(C(=O)NO)(S(=O)(=O)c2ccc(OCCCn3nnc(-c4ccccc4C)n3)cc2)CC1 [Example 151] | – | – | IC50 (Human recombinant MMP-13; value outside parenthesis): 0.0026 µM; IC50 (Human recombinant MMP-2; value outside parenthesis): 0.0384 µM

SMILES | IC50 (Human recombinant MMP-13; [1]) [µM] | IC50 (Human recombinant MMP-2; [1]) [µM] | also measured
O=C(NCCCOc1ccc(S(=O)(=O)C2(C(=O)NO)CCOCC2)cc1)c1ccc(Cl)nc1 [Example 381] | 0.0014 | 0.193 | –
COc1ccc(C(=O)NCCCCNc2ccc(S(=O)(=O)C3(C(=O)NO)CCOCC3)cc2)cc1 [Example 331] | 0.261 | 0.386 | –
O=C(NCCCOc1ccc(S(=O)(=O)C2(C(=O)NO)CCOCC2)cc1)c1cc2cccc(O)c2cc1O [Example 379] | 0.01 | 0.258 | –
O=C(CCCOc1ccc(S(=O)(=O)C2(C(=O)NO)CCOCC2)cc1)c1ccc2ccccc2c1 [Example 299] | 0.0001 | 0.0032 | –
CC(C)Oc1cccc(NC(=O)CCCOc2ccc(S(=O)(=O)C3(C(=O)NO)CCOCC3)cc2)c1 [Example 583] | – | – | IC50 (Human recombinant MMP-13; value outside parentheses): 0.0016 µM; IC50 (Human recombinant MMP-2; value outside parentheses): 0.0157 µM
O=C(NCCOc1ccc(S(=O)(=O)C2(C(=O)NO)CCOCC2)cc1)c1cc2ccccc2s1 [Example 619] | – | – | IC50 (Human recombinant MMP-13; value outside parentheses): 0.0015 µM; IC50 (Human recombinant MMP-2; value outside parentheses): 0.0662 µM
O=C(NCCCOc1ccc(S(=O)(=O)C2(C(=O)NO)CCOCC2)cc1)c1ccncc1 [Example 383] | 0.0075 | 0.351 | –
O=C(NCCCOc1ccc(S(=O)(=O)C2(C(=O)NO)CCOCC2)cc1)c1ccc2ccccc2c1O [Example 388] | 0.002 | 0.185 | –
O=C(NO)C1(S(=O)(=O)c2ccc(OCCCc3nnc(-c4ccc5ccccc5c4)o3)cc2)CCOCC1 [Example 304] | 0.0002 | 0.139 | –
O=C(NO)C1(S(=O)(=O)c2ccc(OCCCc3ccc4ccccc4c3)cc2)CCOCC1 [Example 36] | – | – | IC50 (Human recombinant MMP-13; [2]): 0.0024 µM; IC50 (Human recombinant MMP-2; [2]): 0.095 µM
O=C1c2cc3ccccc3cc2C(=O)N1CCCOc1ccc(S(=O)(=O)C2(C(=O)NO)CCOCC2)cc1 [Example 343] | 0.0024 | 7.7 | –
O=C(NO)C1(S(=O)(=O)c2ccc(OCCCN(c3nc4ccccc4s3)c3nc4ccccc4s3)cc2)CCOCC1 [Example 320] | 6.11 | 5.86 | –
CC(=O)NC(C)(C)CCOc1ccc(S(=O)(=O)C2(C(=O)NO)CCN(C3CC3)CC2)cc1 [Example 221] | – | – | IC50 (Human recombinant MMP-13; value outside parenthesis): 0.244 µM; IC50 (Human recombinant MMP-2; value outside parenthesis): 8.8 µM
O=C(NCCNc1ccc(S(=O)(=O)C2(C(=O)NO)CCOCC2)cc1)c1cc2ccccc2o1 [Example 621] | – | – | IC50 (Human recombinant MMP-13; value outside parentheses): 0.0178 µM; IC50 (Human recombinant MMP-2; value outside parentheses): 0.368 µM
COc1ccc(S(=O)(=O)C[C@H](C)COc2ccc(S(=O)(=O)C3(C(=O)NO)CCOCC3)cc2)cc1 [Example 433] | 0.007 | 0.22 | –
O=C(NCCSc1ccc(S(=O)(=O)C2(C(=O)NO)CCOCC2)cc1)c1cc2ccccc2s1 [Example 597] | – | – | IC50 (Human recombinant MMP-13; value outside parentheses): 0.0121 µM; IC50 (Human recombinant MMP-2; value outside parentheses): 0.471 µM
Cn1c(C(=O)NCCOc2ccc(S(=O)(=O)C3(C(=O)NO)CCOCC3)cc2)cc2ccccc21 [Example 592] | – | – | IC50 (Human recombinant MMP-13; value outside parentheses): 0.0387 µM; IC50 (Human recombinant MMP-2; value outside parentheses): 0.336 µM
